This passage reports GI50 and TGI results from PubChem BioAssay (NCI).

Test systems include 786-0 renal; ACHN renal; HCT-15 colon; HOP-92 NSCLC; K-562 leukemia; LOX IMVI melanoma; MDA-MB-231 breast; NCI-H460 lung; U251 CNS; UACC-257 melanoma.
What all share (assay): NCI tumour cell line growth inhibition, 48 h

SMILES strings stand for the structures. Several values for one entry are separate records, joined by “and”; a condition that tells them apart may be missing. Equal entries are not always repeated.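 These data come from cells grown in 96-well plates and exposed to compound for 48 hours at five concentrations. GI50 is the concentration that inhibits growth by half. TGI is the concentration that stops growth completely.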 A value given as a limit tells only on which side of the number the result lay.

On to `COC(=O)[C@]12CC[C@@H](C)[C@H](C)[C@@H]1C1=CC[C@@H]3[C@@](C)(CC#N)C4=C(C[C@@]3(C)[C@]1(C)CC2)OC[C@]4(C)C=O`, for which the GI50 in the assay on 786-0 renal is 11.6 µM; with ACHN renal, 6.42 µM; with HCT-15 colon, 3.1 µM; in the assay with HOP-92 NSCLC, 4.53 µM; in the assay with K-562 leukemia it was 3.22 µM; in the assay with LOX IMVI melanoma it was 3.11 µM. The GI50 in the assay on MDA-MB-231 breast was 3.34 µM; with NCI-H460 lung, 10.5 µM; in the assay on U251 CNS, 3.61 µM; in the assay with UACC-257 melanoma it was 3.73 µM. Besides, the TGI with 786-0 renal is 71.1 µM; in the assay with ACHN renal, greater than 100 µM; with HCT-15 colon, 23.2 µM; with HOP-92 NSCLC, 34.7 µM; in the assay on K-562 leukemia it was greater than 100 µM; with LOX IMVI melanoma, 13.3 µM. Besides, the TGI with MDA-MB-231 breast worked out at 18.5 µM; in the assay on NCI-H460 lung it was 28 µM; in the assay with U251 CNS, 19.2 µM; with UACC-257 melanoma, 18.3 µM.

Take `CC(=O)Nc1cc2c3c(cccc3c1)-c1ccccc1-2`: the GI50 in the assay with 786-0 renal was 14.2 µM; in the assay with ACHN renal it was 19.2 µM; in the assay with HCT-15 colon it was greater than 100 µM; in the assay on HOP-92 NSCLC it was 17.8 µM; in the assay with K-562 leukemia it was greater than 100 µM; in the assay with LOX IMVI melanoma, 38.9 µM. For the same compound, the GI50 was 10.6 µM in the assay on MDA-MB-231 breast, 29.6 µM in the assay with NCI-H460 lung, 39.3 µM in the assay with U251 CNS and 90.3 µM with UACC-257 melanoma. The TGI in the assay with 786-0 renal was 40 µM; in the assay with ACHN renal, 52.2 µM; with HCT-15 colon it was greater than 100 µM; with HOP-92 NSCLC, 44.8 µM; in the assay with K-562 leukemia, greater than 100 µM; in the assay on LOX IMVI melanoma, greater than 100 µM. In addition, the TGI with MDA-MB-231 breast is 25.8 µM; in the assay with NCI-H460 lung it was greater than 100 µM; in the assay on U251 CNS it was greater than 100 µM; in the assay on UACC-257 melanoma, greater than 100 µM.

Consider `O=C1c2ccc3c4c(ccc(c24)C(=O)N1CCNCc1ccccc1)C(=O)N(CCNCc1ccccc1)C3=O`, for which the GI50 with 786-0 renal is 1.89 µM; in the assay with ACHN renal it was 3.19 µM; in the assay on HCT-15 colon, 1.43 µM; with HOP-92 NSCLC, 7.66 µM; in the assay with K-562 leukemia, 0.365 µM; in the assay on LOX IMVI melanoma, 1.67 µM. The GI50 with MDA-MB-231 breast was 2.31 µM; in the assay with NCI-H460 lung it was 1.8 µM; in the assay with U251 CNS, 2.02 µM; in the assay on UACC-257 melanoma it was 1.69 µM. The TGI in the assay on 786-0 renal was 3.59 µM; in the assay on ACHN renal, 13.5 µM; in the assay on HCT-15 colon, 2.92 µM; in the assay on HOP-92 NSCLC, 33.2 µM; in the assay with K-562 leukemia, greater than 100 µM; with LOX IMVI melanoma it was 3.16 µM. Moreover, the TGI with MDA-MB-231 breast amounted to 6.61 µM; in the assay on NCI-H460 lung, 4.26 µM; in the assay with U251 CNS it was 5.42 µM; in the assay with UACC-257 melanoma it was 3.45 µM.

With `O=C(/C=C/C=C/c1ccc2c(c1)OCO2)N/N=C\c1ccc(O)cc1O`, the GI50 with 786-0 renal is 2.89 µM; in the assay on ACHN renal, 1.99 µM; in the assay with HCT-15 colon, 0.776 µM; in the assay with HOP-92 NSCLC, 1.98 µM; in the assay with K-562 leukemia it was 2.83 µM; with LOX IMVI melanoma it was 1.18 µM. Besides, the GI50 is 3.49 µM in the assay with MDA-MB-231 breast, 1.58 µM with NCI-H460 lung, 1.64 µM in the assay on U251 CNS and 3.06 µM in the assay with UACC-257 melanoma. Besides, the TGI with 786-0 renal is 11.8 µM; in the assay with ACHN renal it was 13.1 µM; with HCT-15 colon, 21.4 µM; in the assay on HOP-92 NSCLC it was 13.5 µM; with K-562 leukemia it was greater than 100 µM; in the assay on LOX IMVI melanoma, 10.1 µM. Moreover, the TGI in the assay with MDA-MB-231 breast amounted to 19.3 µM; in the assay on NCI-H460 lung, 10.5 µM; in the assay on U251 CNS it was 23 µM; in the assay with UACC-257 melanoma, 15.9 µM.

For the compound `CCC(C)C1NC(=O)C(NC(=O)C(CC(C)C)N(C)C(=O)[C@@H]2CC(O)CN2C(=O)[C@H](C)O)C(C)OC(=O)[C@H](Cc2ccc(OC)cc2)N(C)C(=O)[C@@H]2CCCN2C(=O)[C@H](CC(C)C)NC(=O)C(C)C(=O)[C@H](C(C)C)OC(=O)CC1O` (stereo not given in full), the GI50 is 0.0762 µM in the assay on 786-0 renal; 0.131 µM in the assay on ACHN renal; 0.315 µM in the assay with HCT-15 colon; 0.0127 µM in the assay with HOP-92 NSCLC; 0.025 µM in the assay on K-562 leukemia; 0.0218 µM in the assay on LOX IMVI melanoma. For the same compound, the GI50 with MDA-MB-231 breast was 0.0926 µM; in the assay with NCI-H460 lung, 0.019 µM; with U251 CNS it was less than 0.01 µM; with UACC-257 melanoma, 0.0768 µM. The TGI is 1.7 µM and 2.28 µM in the assay with 786-0 renal; 8.74 µM and 5.22 µM with ACHN renal; 12.7 µM in the assay on HCT-15 colon; 1.99 µM and 0.285 µM in the assay with HOP-92 NSCLC; 0.352 µM in the assay with K-562 leukemia; 1.06 µM and 0.193 µM in the assay with LOX IMVI melanoma. Also, the TGI is 0.991 µM and 3.95 µM in the assay on MDA-MB-231 breast; 1.16 µM and 1.4 µM with NCI-H460 lung; 1.63 µM and 0.677 µM in the assay on U251 CNS; 1.94 µM and 1.85 µM in the assay on UACC-257 melanoma.

Consider `O=C(Nc1cccc(-n2cc(-c3ccncc3)c(-c3ccc(Cl)c(O)c3)n2)c1)Nc1ccc(Cl)c(Cl)c1`, for which the GI50 in the assay on 786-0 renal is 7.22 µM; in the assay with ACHN renal, 1.04 µM; in the assay on HCT-15 colon, 1.23 µM; in the assay with HOP-92 NSCLC, 0.679 µM; with K-562 leukemia, 1.41 µM; in the assay on LOX IMVI melanoma, 0.939 µM. Further, the GI50 is 1.18 µM in the assay on MDA-MB-231 breast, 0.993 µM in the assay with NCI-H460 lung, 1.51 µM in the assay on U251 CNS and 0.93 µM in the assay with UACC-257 melanoma. The TGI in the assay with 786-0 renal was greater than 32.5 µM; in the assay with ACHN renal, greater than 32.5 µM; in the assay on HCT-15 colon it was 29.6 µM; in the assay on HOP-92 NSCLC, 1.91 µM; in the assay with K-562 leukemia it was greater than 32.5 µM; with LOX IMVI melanoma it was 3.57 µM. In addition, the TGI in the assay with MDA-MB-231 breast was 8.33 µM; in the assay on NCI-H460 lung, 3.57 µM; in the assay with U251 CNS, 9.68 µM; in the assay with UACC-257 melanoma, 3.16 µM.

Turning to `COc1cc(N2CCC(N)CC2)ccc1Nc1ncc(Cl)c(-c2c[nH]c3ccccc23)n1`, the GI50 is 0.546 µM in the assay on 786-0 renal; 0.292 µM in the assay with ACHN renal; 0.323 µM in the assay with HCT-15 colon; 0.035 µM in the assay with HOP-92 NSCLC; 1.58 µM in the assay with K-562 leukemia; 0.226 µM in the assay with LOX IMVI melanoma. Also, the GI50 was 1.22 µM with MDA-MB-231 breast, 0.235 µM in the assay with NCI-H460 lung, 0.407 µM in the assay on U251 CNS and 1.02 µM with UACC-257 melanoma. In addition, the TGI in the assay on 786-0 renal is 1.95 µM; in the assay on ACHN renal, 1.94 µM; in the assay on HCT-15 colon it was 1.96 µM; with HOP-92 NSCLC, 0.345 µM; with K-562 leukemia, 5.03 µM; in the assay with LOX IMVI melanoma, 1.58 µM. The TGI was 2.79 µM in the assay on MDA-MB-231 breast, 1.66 µM in the assay on NCI-H460 lung, 1.79 µM in the assay on U251 CNS and 2.34 µM in the assay on UACC-257 melanoma.
